The values that follow come from PubChem BioAssay AID328 (DTP/NCI, 2004).

Where “and” joins values, the source holds several entries; their conditions need not be identical. Equal entries are not always repeated. Inconclusive results and toxic doses are left out.

The assay concerns BDF1 mice, P388 leukemia ip, median survival T/C. Put plainly: NCI In Vivo Anticancer Drug Screen. Data for tumor model P388 Leukemia (intraperitoneal) in B6D2F1 (BDF1) mice. The settings on record: endpoint: median survival time, higher = longer survival. Put shortly:
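Read-out is survival of treated animals expressed relative to the vehicle group, as a T/C ratio.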

The mark [1] stands for this setting: dose: 50.0 mg/kg/injection, schedule: Q01DX009 (ip), vehicle: saline with Tween-80.
Setting [2] is: dose: 100.0 mg/kg/injection, schedule: Q01DX009 (ip), vehicle: saline with Tween-80.
The mark [3] stands for this setting: dose: 200.0 mg/kg/injection, schedule: Q01DX009 (ip), vehicle: saline with Tween-80.
Setting [4] is: dose: 100.0 mg/kg/injection, schedule: Q04DX003 (ip), vehicle: saline with Tween-80.
The mark [5] stands for this setting: dose: 200.0 mg/kg/injection, schedule: Q04DX003 (ip), vehicle: saline with Tween-80.
Setting [6] is: dose: 400.0 mg/kg/injection, schedule: Q01DX009 (ip), vehicle: saline with Tween-80.
Where [7] appears, read: dose: 400.0 mg/kg/injection, schedule: Q04DX003 (ip), vehicle: saline with Tween-80.

Turning to `CC[N+](CC)(CC)CC.N#C/C([SH2+])=C(/[SH2+])C#N.N#C/C([SH2+])=C(/[SH2+])C#N.[Fe+2]`, the T/C is 105 % of control (dose: 1.56 mg/kg/injection, schedule: Q01DX009 (ip), vehicle: saline with Tween-80); 110 % of control (dose: 3.12 mg/kg/injection, schedule: Q01DX009 (ip), vehicle: saline with Tween-80); 100 % of control (dose: 3.5 mg/kg/injection, schedule: Q01DX001 (ip), vehicle: saline with Tween-80); 110 % of control (dose: 6.25 mg/kg/injection, schedule: Q01DX009 (ip), vehicle: saline with Tween-80); 95 % of control (dose: 7.0 mg/kg/injection, schedule: Q01DX001 (ip), vehicle: saline with Tween-80); 100 % of control (dose: 9.2 mg/kg/injection, schedule: Q04DX003 (ip), vehicle: saline with Tween-80). Moreover, the T/C (dose: 14.0 mg/kg/injection, schedule: Q04DX003 (ip), vehicle: saline with Tween-80) was 95 % of control.

For `Nc1nc(N)c2cc(S(=O)(=O)c3ccc(Cl)c(Cl)c3)ccc2n1`, the T/C by setting is: under setting [1], 100 % of control; under setting [2], 91 % of control; under setting [3], 102 % of control.

With `Cc1c(Cl)c(Cl)c(Cl)c(Cl)c1Cl`, the T/C is, setting by setting: under setting [2], 118 % of control; under setting [4], 104 % of control; under setting [3], 95 % of control; under setting [5], 104 % of control; under setting [6], 95 % of control; under setting [7], 95 % of control.

With `CCCCCCCCCCCCCC[n+]1ccccc1`, the T/C runs as follows: (dose: 16.0 micrograms/kg/injection, schedule: Q01DX009 (ip), vehicle: saline with Tween-80) 87 % of control; (dose: 32.0 micrograms/kg/injection, schedule: Q01DX009 (ip), vehicle: saline with Tween-80) 100 % of control; (dose: 62.5 micrograms/kg/injection, schedule: Q01DX009 (ip), vehicle: saline) 113 % of control; (dose: 62.5 micrograms/kg/injection, schedule: Q01DX010 (ip), vehicle: saline) 115 % of control; (dose: 125.0 micrograms/kg/injection, schedule: Q01DX009 (ip), vehicle: saline) 122 % of control; (dose: 250.0 micrograms/kg/injection, schedule: Q01DX010 (ip), vehicle: saline) 110 % of control.

Regarding `NC(=S)NNC(=O)C(Cc1ccccc1)NC(=O)OCc1ccccc1` (stereo not given), the T/C (dose: 12.5 mg/kg/injection, schedule: Q01DX009 (ip), vehicle: saline with Tween-80) is 100 % of control and the T/C (dose: 25.0 mg/kg/injection, schedule: Q01DX009 (ip), vehicle: saline with Tween-80) is 94 % of control.

Consider `CCC1(Br)OC1=O` (stereo not given), for which the T/C is 115 % of control (dose: 150.0 mg/kg/injection, schedule: Q01DX009 (ip), vehicle: saline) and 115 % of control (dose: 335.0 mg/kg/injection, schedule: Q01DX009 (ip), vehicle: saline).

As to `CCOC(=O)C(Br)(C(=O)OCC)C(c1ccccc1)c1ccccc1`, the T/C is 95 % of control under setting [2] and 109 % of control under setting [6].

`CCCCCCCC(=O)OCC(=O)[C@]1(O)Cc2c(O)c3c(c(O)c2[C@@H](OC2CC(N)C(O)C(C)O2)C1)C(=O)c1c(OC)cccc1C3=O` (stereo not given in full): the T/C runs as follows: (dose: 0.5 mg/kg/injection, schedule: Q01DX009 (ip), vehicle: water) 204 % of control; (dose: 1.0 mg/kg/injection, schedule: Q01DX009 (ip), vehicle: water) 254 % of control and 190 % of control; (dose: 1.0 mg/kg/injection, schedule: Q04DX003 (ip), vehicle: water) 207 % of control; (dose: 2.0 mg/kg/injection, schedule: Q01DX009 (ip), vehicle: water) 231 % of control and 311 % of control; (dose: 2.0 mg/kg/injection, schedule: Q04DX003 (ip), vehicle: water) 264 % of control; (dose: 2.5 mg/kg/injection, schedule: Q04DX003 (ip), vehicle: water) 116 % of control. Moreover, the T/C was 215 % of control (dose: 2.88 mg/kg/injection, schedule: Q04DX003 (ip), vehicle: water); 90 % of control (dose: 4.0 mg/kg/injection, schedule: Q01DX009 (ip), vehicle: water); 271 % of control (dose: 4.0 mg/kg/injection, schedule: Q04DX003 (ip), vehicle: water); 339 % of control (dose: 4.8 mg/kg/injection, schedule: Q04DX003 (ip), vehicle: water); 174 % of control (dose: 10.0 mg/kg/injection, schedule: Q04DX003 (ip), vehicle: water); 100 % of control (dose: 40.0 mg/kg/injection, schedule: Q04DX003 (ip), vehicle: water).

With `CCCCOB(CI)OCCCC`, the T/C runs as follows: (dose: 1.56 mg/kg/injection, schedule: Q01DX009 (ip), vehicle: saline) 95 % of control; (dose: 3.13 mg/kg/injection, schedule: Q01DX009 (ip), vehicle: saline) 109 % of control; (dose: 6.25 mg/kg/injection, schedule: Q01DX009 (ip), vehicle: saline) 89 % of control and 109 % of control.

On to `CCCSCCCCSCCC`, for which the T/C runs as follows: under setting [4], 109 % of control; under setting [5], 113 % of control; under setting [7], 109 % of control.

As to `O=C(O)CC(O)(CC(=O)O)C(=O)O.[Ga]`, the T/C by setting is: (dose: 75.0 mg/kg/injection, schedule: Q01DX009 (ip), vehicle: saline) 114 % of control; (dose: 112.5 mg/kg/injection, schedule: Q01DX009 (ip), vehicle: saline) 90 % of control; (dose: 132.0 mg/kg/injection, schedule: Q04DX003 (ip), vehicle: saline) 115 % of control; (dose: 200.0 mg/kg/injection, schedule: Q04DX003 (ip), vehicle: saline) 110 % of control; (dose: 300.0 mg/kg/injection, schedule: Q04DX003 (ip), vehicle: saline) 110 % of control.

For the compound `Cc1nc(N)c(=O)[nH]c1C`, the T/C is 95 % of control under setting [2]; 108 % of control under setting [4]; 90 % of control under setting [3]; 95 % of control under setting [5]; 90 % of control under setting [6]; 91 % of control under setting [7].

Consider `O=C([CH-]C(=O)C(F)(F)F)c1ccccc1.O=C([CH-]C(=O)C(F)(F)F)c1ccccc1.O=C([CH-]C(=O)C(F)(F)F)c1ccccc1.O=C([CH-]C(=O)C(F)(F)F)c1ccccc1.[Eu+3].c1ccncc1`, for which the T/C (dose: 100.0 mg/kg/injection, schedule: Q01DX009 (ip), vehicle: Klucel (hydroxypropylcellulose) (HPC)) is 113 % of control.

On to `COc1cc2c(cc1OC)C(CNC(=O)/C=C/c1cc(OC)c(OC)c(OC)c1)C2` (stereo not given), for which the T/C is, setting by setting: under setting [1], 98 % of control; under setting [2], 107 % of control; under setting [3], 88 % of control.

As for `CSc1ccc(NC(=O)Nc2ccc(N=Nc3ccccc3)cc2)cc1`, the T/C reads like this: (dose: 42.5 mg/kg/injection, schedule: Q01DX009 (ip), vehicle: Klucel (hydroxypropylcellulose) (HPC)) 100 % of control; (dose: 85.0 mg/kg/injection, schedule: Q01DX009 (ip), vehicle: Klucel (hydroxypropylcellulose) (HPC)) 100 % of control; (dose: 170.0 mg/kg/injection, schedule: Q01DX009 (ip), vehicle: Klucel (hydroxypropylcellulose) (HPC)) 100 % of control.

Turning to `CC(=O)OCC1OC(O)C(NC(=O)C(F)(F)F)C(OC(C)=O)C1OC(C)=O` (stereo not given), the T/C is, setting by setting: (dose: 12.5 mg/kg/injection, schedule: Q04DX003 (ip), vehicle: saline) 118 % of control; (dose: 12.5 mg/kg/injection, schedule: Q## X003 (ip), vehicle: saline) 104 % of control; (dose: 25.0 mg/kg/injection, schedule: Q## X003 (ip), vehicle: saline) 119 % of control.

Regarding `CC1CC(C)(C)N=C(CCC[N+](=O)[O-])O1` (stereo not given), the T/C was 105 % of control (dose: 50.0 mg/kg/injection, schedule: Q04DX003 (ip), vehicle: saline sonified); 105 % of control (dose: 100.0 mg/kg/injection, schedule: Q04DX003 (ip), vehicle: saline sonified); 105 % of control (dose: 200.0 mg/kg/injection, schedule: Q04DX003 (ip), vehicle: saline sonified).
